{
  "source": "patent US20230364052A1",
  "about": "“COMPOSITION AND METHOD FOR TREATING AUTISM” (ZELIRA THERAPEUTICS OPERATIONS PTY LTD, priority 2017, published 2023)",
  "data": [
    {"system": "patients with ASD diagnosis according to DSM-5", "experiment": "Retrospective review of ASD patients treated with Cannabis extracts; clinical response by CGI-I Scale", "format": "in vivo", "conditions": "66.6% of the ASD patients, treated before Cannabis therapy", "description": "A retrospective review of patients seen between June 2016 and March 2017 with ASD diagnosis according to DSM-5 (persistent deficits in social communication and interaction; restricted, repetitive patterns of behaviour, interests, or activities; symptoms present in the early developmental period; cause clinically significant impairment in social, occupational, or other areas of current functioning; not explained by intellectual disability nor global developmental delay) who were treated with Cannabis extracts for at least a 12-week period was completed. Demographic/clinical data, neuroimaging/EEG studies, vision, audition, genetic, and metabolic tests, parental/school/neuropsychological reports were reviewed.\nThe patients were administered with the cannabinoids sublingually (sublingual drops or “rice grain” method—see Example 1) twice daily (BID) for the duration of their treatment. The Cannabis extracts were obtained from the Moby Dick, Sharck, Durga mata or Nebula strains of Cannabis. For 10 out of the 21 patients included in the study, the total daily dosage of CBD and THC (measured by HPLC) and CBD:THC ratio were calculated and discussed further below.\nThe initial severity of symptoms presenting in the patients was assessed according to the criteria provided in the DSM-5, and are shown in FIG. 3.\nThe selected patients consisted of twenty (20) children and 1 adult (Mean age: 9 years, 10 month (range: 26 mo-22 yo), 15 males).\nMean follow-up after starting Cannabis therapy was 7.6 mo (range: 3-12 months). According to Cannabis strain, 71.5% of patients received balanced CBD:THC extracts; 19.0% high-CBD (e.g. Table 3; Formulations 1-3), and 9.5% high-THC extracts (e.g. Table 3; Formulation 6). The administered daily dose of CBD and THC was measured in 10 patients; 9 of them received […] and one high-THC extracts (Tables 2 and 3).", "values": [
      {"smiles": "O=C1CCc2ccc(OCCCCN3CCN(c4cccc(Cl)c4Cl)CC3)cc2N1", "note": "[aripiprazole]", "response to previous treatment": "without good response and/or with undesirable adverse events"},
      {"smiles": "COC(=O)C(c1ccccc1)C1CCCCN1", "note": "(stereo not shown) [methylphenidate]", "response to previous treatment": "without good response and/or with undesirable adverse events"},
      {"smiles": "OCCOCCN1CCN(C2=Nc3ccccc3Sc3ccccc32)CC1", "note": "[quetiapine]", "response to previous treatment": "without good response and/or with undesirable adverse events"},
      {"smiles": "Cc1nc2n(c(=O)c1CCN1CCC(c3noc4cc(F)ccc34)CC1)CCCC2", "note": "[risperidone]", "response to previous treatment": "without good response and/or with undesirable adverse events"}
    ]}
  ]
}
